Laboratory results from US10716762B2, “Transmucosal administration system for a pharmaceutical drug” (LTS Lohmann Therapie-Systeme AG, priority 2012, dated 2020).

Columns and labels:
[1] = Pharmacokinetics of idebenone after oromucosal (oral wafer) vs. oral (gavage) administration, three way cross-over study; type: in vivo, female Beagle dogs; conditions: oral administration by gavage vs. oral-mucosal application
Protocol: Plasma levels of idebenone were studied after the administration of two different thin film formulations (oral wafers) administered via the oromucosal route and compared to the profile obtained when idebenone is dosed by the oral route (gavage) in a micro-emulsion. The doses used in this study were 30 mg oromucosal (oral wafer A, suspension type), 15 mg oromucosal (oral wafer B, solid solution type) and 300 mg oral (TPGS/Miglyol microemulsion administered by oral gavage). The study was a three way cross-over study with one week wash-out between administrations. Formulations were administered to female Beagle dogs under fasted conditions. The pharmacokinetic exposure of free (unconjugated) idebenone and its total metabolites (total idebenone, total QS10, total QS6, and total QS4) was determined for each formulation.
Blood samples were collected at several time points over 6 hours after administration. Concentrations of idebenone in plasma were measured by HPLC-MS/MS and pharmacokinetic parameters were calculated.
For this, idebenone was separated and quantified by HPLC-MS/MS: For HPLC, a SYNERGI™ 4μ MAX-RP (50×2 mm) column (Phenomenex. Schlieren, Switzerland) was used. Column temperature: 50° C. […]
Once separated, idebenone was quantified by ESI-MS/MS (API 4000, Perkin-Elmer-Europe BV, Rotkreuz, Switzerland) in positive mode. […]

[2] = First-pass metabolism of idebenone through the liver after oral administration; type: in vivo; conditions: after absorption in the gut
Text: As a lipophilic compound idebenone is well absorbed in the gastrointestinal tract after conventional oral administration, which is the normal route for administering said compound. Dosage forms such as tablets or capsules have been used in clinical trials and as marketed product. In the course of our investigations on the pharmacological profile of idebenone, we discovered that the compound, after being absorbed in the gut, is metabolized very quickly during its first passage through the liver (“first-pass-effect”). […] Hepatic metabolism of idebenone results in side chain oxidation, reduction of the quinone ring, sulphate and glucuronide conjugation and subsequent renal excretion. The high liver metabolism greatly reduces the potentially high plasma levels of the pharmacologically active idebenone. Because of this strong first pass metabolism, oral administration of idebenone requires high doses of the compound to achieve pharmacologically efficacious plasma levels in the body. Said high doses can result in unwanted side effects such as diarrhea.

[3] = 536 patients, up to 360 mg t.i.d.; Thal et al., Neurology 61 (2003); cited from earlier work

metabolic spectrum of idebenone [1]: comparable | idebenone metabolized during its first passage through the liver [2]: more than 98%
SMILES: COC1=C(OC)C(=O)C(CCCCCCCCCCO)=C(C)C1=O [idebenone, 2,3-dimethoxy-5-methyl-6-(10-hydroxydecyl)-1,4-benzoquinone]
treatment emergent adverse events compared to placebo [3]: no treatment emergent adverse events except some gastrointestinal irritations as well as a slight increase in orthopedic events
